Measurements taken from US20090232838A1, “Ligands of melanocortin receptors” (priority 2005, published 2009).
pEC50: −log10 of the molar value. Read-outs that look alike come from different tables or passages of the source.

Columns and labels:
Format in all cases: cell-based
hMC1-R = biological target: T1, hMC1-R (Homo sapiens, UniProt Q01726); experiment: cyclic AMP bioassay, hMC1-R
T1 construct: expressed in transfected cells; host or cells: CHO-K1

hMC4-R = biological target: T2, hMC4-R (Homo sapiens, UniProt P32245); experiment: cyclic AMP bioassay, hMC4-R
T2 construct: expressed in transfected cells; host or cells: CHO-K1
T2 sequence (P32245 whole entry): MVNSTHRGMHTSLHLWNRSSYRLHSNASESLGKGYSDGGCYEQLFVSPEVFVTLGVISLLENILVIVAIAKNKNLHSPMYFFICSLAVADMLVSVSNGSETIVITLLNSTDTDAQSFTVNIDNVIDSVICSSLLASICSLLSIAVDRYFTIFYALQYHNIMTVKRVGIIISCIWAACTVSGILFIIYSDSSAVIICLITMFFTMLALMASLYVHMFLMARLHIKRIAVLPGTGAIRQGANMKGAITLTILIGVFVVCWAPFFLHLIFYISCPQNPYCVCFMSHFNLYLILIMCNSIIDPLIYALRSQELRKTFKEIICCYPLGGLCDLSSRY

hMC5-R = biological target: T3, hMC5-R (Homo sapiens, UniProt P33032); experiment: cyclic AMP bioassay, hMC5-R
T3 construct: expressed in transfected cells; host or cells: CHO-K1
T3 sequence (P33032 whole entry): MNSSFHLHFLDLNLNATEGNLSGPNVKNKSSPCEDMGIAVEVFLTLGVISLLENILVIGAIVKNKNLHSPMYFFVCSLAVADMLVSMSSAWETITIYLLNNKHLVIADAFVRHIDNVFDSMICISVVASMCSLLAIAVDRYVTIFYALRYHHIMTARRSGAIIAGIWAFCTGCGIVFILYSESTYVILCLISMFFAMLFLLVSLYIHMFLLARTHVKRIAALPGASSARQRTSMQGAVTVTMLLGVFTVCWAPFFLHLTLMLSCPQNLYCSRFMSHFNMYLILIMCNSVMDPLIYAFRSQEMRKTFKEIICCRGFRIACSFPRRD

hMC3-R = biological target: T4, hMC3-R (Homo sapiens, UniProt P41968); experiment: cyclic AMP bioassay, hMC3-R
T4 construct: expressed in transfected cells; host or cells: CHO-K1
T4 sequence (P41968 whole entry): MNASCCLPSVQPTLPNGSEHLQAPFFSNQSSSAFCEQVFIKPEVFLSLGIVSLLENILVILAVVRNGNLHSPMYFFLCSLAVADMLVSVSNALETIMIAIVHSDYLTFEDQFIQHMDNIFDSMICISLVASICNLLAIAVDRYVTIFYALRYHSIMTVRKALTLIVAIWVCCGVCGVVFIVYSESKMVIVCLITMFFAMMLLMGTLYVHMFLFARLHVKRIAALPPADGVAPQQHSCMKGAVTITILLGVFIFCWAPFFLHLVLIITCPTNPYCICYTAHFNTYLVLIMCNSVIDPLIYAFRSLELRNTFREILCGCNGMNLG

[1] = Table 3A, cAMP in CHO-K1 cells, agonist, read-out: EC50 hMC1-R
[2] = Table 3A, cAMP in CHO-K1 cells, antagonist potency by Schild analysis, read-out: Kb hMC4-R
[3] = Table 3A, cAMP in CHO-K1 cells, agonist, read-out: EC50 hMC5-R
[4] = Table 3A, cAMP in CHO-K1 cells, antagonist potency by Schild analysis, read-out: Kb hMC3-R

T1 sequence (Q01726 whole entry): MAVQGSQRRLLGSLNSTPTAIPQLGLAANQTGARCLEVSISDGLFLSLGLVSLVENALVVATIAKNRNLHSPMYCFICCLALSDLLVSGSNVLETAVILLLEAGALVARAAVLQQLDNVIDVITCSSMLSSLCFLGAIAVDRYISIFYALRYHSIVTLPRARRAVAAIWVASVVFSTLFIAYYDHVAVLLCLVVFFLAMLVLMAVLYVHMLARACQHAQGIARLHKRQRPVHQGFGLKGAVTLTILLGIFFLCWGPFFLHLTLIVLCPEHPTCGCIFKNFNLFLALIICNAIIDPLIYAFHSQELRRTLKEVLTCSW

SMILES: CCCC[C@H](NC(C)=O)C(=O)N[C@H]1CC(=O)NCCCC[C@@H](C(=O)N2CCC[C@H]2C(=O)N2CCC[C@H]2C(=O)N[C@@H](CCCCN)C(=O)N[C@@H](CC(=O)O)C(=O)NCCOCCOCC(=O)N[C@@H](Cc2ccc(O)cc2)C(=O)NCC(=O)N[C@@H](CCCNC(=N)N)C(=O)N[C@@H](CCCCN)C(=O)N[C@@H](CCCCN)C(=O)N[C@@H](CCCNC(=N)N)C(=O)N[C@@H](CCCNC(=N)N)C(=O)N[C@@H](CCC(N)=O)C(=O)N[C@@H](CCCNC(=N)N)C(=O)N[C@@H](CCCNC(=N)N)C(=O)N[C@@H](CCCNC(=N)N)C(N)=O)NC(=O)[C@H](Cc2c[nH]c3ccccc23)NC(=O)[C@H](CCCNC(=N)N)NC(=O)[C@@H](Cc2ccc3ccccc3c2)NC(=O)[C@H](Cc2c[nH]cn2)NC1=O
- pEC50 (hMC1-R; [1]): 8.44
- Kb (hMC4-R; [2]): 3.73 nM
- pEC50 (hMC5-R; [3]): 8.79
- Kb (hMC3-R; [4]): 19.4 nM

SMILES: CCCC[C@H](NC(C)=O)C(=O)N[C@H]1CC(=O)NCCCC[C@@H](C(=O)NCCC(=O)NCCC(=O)N[C@@H](Cc2ccc(O)cc2)C(=O)NCC(=O)N[C@@H](CCCNC(=N)N)C(=O)N[C@@H](CCCCN)C(=O)N[C@@H](CCCCN)C(=O)N[C@@H](CCCNC(=N)N)C(=O)N[C@@H](CCCNC(=N)N)C(=O)N[C@@H](CCC(N)=O)C(=O)N[C@@H](CCCNC(=N)N)C(=O)N[C@@H](CCCNC(=N)N)C(=O)N[C@@H](CCCNC(=N)N)C(N)=O)NC(=O)[C@H](Cc2c[nH]c3ccccc23)NC(=O)[C@H](CCCNC(=N)N)NC(=O)[C@@H](Cc2ccc3ccccc3c2)NC(=O)[C@H](Cc2c[nH]cn2)NC1=O
- pEC50 (hMC1-R; [1]): 8.86
- Kb (hMC4-R; [2]): 7.94 nM
- pEC50 (hMC5-R; [3]): 9.08
- Kb (hMC3-R; [4]): 16.2 nM

SMILES: CCCC[C@H](NC(C)=O)C(=O)N[C@H]1CSSC[C@@H](C(=O)NCCC(=O)N[C@@H](Cc2ccc(O)cc2)C(=O)NCC(=O)N[C@@H](CCCNC(=N)N)C(=O)N[C@@H](CCCCN)C(=O)N[C@@H](CCCNC(=N)N)C(=O)N[C@@H](CCCNC(=N)N)C(=O)N[C@@H](CCCNC(=N)N)C(=O)N[C@@H](CCC(N)=O)C(=O)N[C@@H](CCCNC(=N)N)C(=O)N[C@@H](CCCNC(=N)N)C(=O)N[C@@H](CCCNC(=N)N)C(N)=O)NC(=O)[C@H](Cc2c[nH]c3ccccc23)NC(=O)[C@H](CCCNC(=N)N)NC(=O)[C@@H](Cc2ccccc2)NC(=O)[C@H](Cc2c[nH]cn2)NC(=O)[C@@H](C)NC1=O
- pEC50 (hMC1-R): 8.12
- pEC50 (hMC4-R): 9.22
- pEC50 (hMC5-R): 5.75
- pEC50 (hMC3-R): 8.38

SMILES: CCCC[C@H](NC(C)=O)C(=O)N[C@H]1CSSC[C@@H](C(=O)NCCC(=O)N[C@@H](Cc2ccc(O)cc2)C(=O)NCC(=O)N[C@@H](CCCNC(=N)N)C(=O)N[C@@H](CCCNC(=N)N)C(=O)N[C@@H](CCCCN)C(=O)N[C@@H](CCCNC(=N)N)C(=O)N[C@@H](CCCNC(=N)N)C(=O)N[C@@H](CCC(N)=O)C(=O)N[C@@H](CCCNC(=N)N)C(=O)N[C@@H](CCCNC(=N)N)C(=O)N[C@@H](CCCNC(=N)N)C(N)=O)NC(=O)[C@H](Cc2c[nH]c3ccccc23)NC(=O)[C@H](CCCNC(=N)N)NC(=O)[C@@H](Cc2ccccc2)NC(=O)[C@H](Cc2c[nH]cn2)NC(=O)[C@@H](C)NC1=O
- pEC50 (hMC1-R): 8.25
- pEC50 (hMC4-R): 9.37
- pEC50 (hMC5-R): 5.81
- pEC50 (hMC3-R): 8.33

SMILES: CCCC[C@H](NC(C)=O)C(=O)N[C@H]1CSSC[C@@H](C(=O)NCCC(=O)NCC(=O)N[C@@H](CCCNC(=N)N)C(=O)N[C@@H](CCCNC(=N)N)C(=O)N[C@@H](CCCCN)C(=O)N[C@@H](CCCNC(=N)N)C(=O)N[C@@H](CCCNC(=N)N)C(=O)N[C@@H](CCC(N)=O)C(=O)N[C@@H](CCCNC(=N)N)C(=O)N[C@@H](CCCNC(=N)N)C(=O)N[C@@H](CCCNC(=N)N)C(N)=O)NC(=O)[C@H](Cc2c[nH]c3ccccc23)NC(=O)[C@H](CCCNC(=N)N)NC(=O)[C@@H](Cc2ccccc2)NC(=O)[C@H](Cc2c[nH]cn2)NC(=O)[C@@H](C)NC1=O
- pEC50 (hMC1-R): 8.63
- pEC50 (hMC4-R): 9.59
- pEC50 (hMC5-R): 6.30
- pEC50 (hMC3-R): 8.56

SMILES: CC(=O)N[C@H]1CSSC[C@@H](C(=O)N2CCC[C@H]2C(=O)N2CCC[C@H]2C(=O)N[C@@H](CCCCN)C(=O)N[C@@H](CC(=O)O)C(=O)NCCC(=O)N[C@@H](Cc2ccc(O)cc2)C(=O)NCC(=O)N[C@@H](CCCNC(=N)N)C(=O)N[C@@H](CCCNC(=N)N)C(=O)N[C@@H](CCCCN)C(=O)N[C@@H](CCCNC(=N)N)C(=O)N[C@@H](CCCNC(=N)N)C(=O)N[C@@H](CCC(N)=O)C(=O)N[C@@H](CCCNC(=N)N)C(=O)N[C@@H](CCCNC(=N)N)C(=O)N[C@@H](CCCNC(=N)N)C(N)=O)NC(=O)[C@H](C)NC(=O)[C@H](Cc2cccc3ccccc23)NC(=O)[C@H](CCCNC(=N)N)NC(=O)[C@@H](Cc2ccc3ccccc3c2)NC(=O)[C@H](Cc2c[nH]cn2)NC(=O)[C@H](CCC(=O)O)NC1=O
- pEC50 (hMC1-R): 7.54
- Kb (hMC4-R): 16.7 nM
- pEC50 (hMC5-R): 6.76
- Kb (hMC3-R): 22.6 nM
